{"source": "patent US12508224B2", "about": "“Treating microvascular dysfunction” (EndoProtech, Inc., priority 2018, dated 2025)", "origin": "cited, not measured here", "tested_on": "glycocalyx"}
{"compound": "CCCCCCCCCCCCC/C=C/[C@@H](O)[C@@H](N)COP(=O)(O)O", "note": "[SP, sphingosine-1-phosphate]", "values": [{"measurement": "levels needed in plasma to protect the stability of the glycocalyx", "value": "100 to 300", "unit": "nM"}]}
